The subject of the assay is human LINE-1. In words: Human LINE-1 retrotransposition assay (HeLa cell-based dual-luciferase reporter). The settings on record: Homo sapiens, HeLa, 72 h, Human LINE-1 activity inhibition; HeLa cells, reporter plasmid pYX017, Firefly/Renilla, 72 h incubation. As to the method:
Representative Compounds of the Disclosure were tested for inhibition of retrotransposition activity of human LINE-1 in HeLa cells according to the following procedure.
HeLa cervical cancer cells were cultivated at 37° C. in a humidified 5% CO2 incubator in Dulbecco's Modified Eagle's Medium (DMEM)—high glucose, with 4500 mg/L glucose, L-glutamine, sodium pyruvate and sodium bicarbonate (Sigma), supplemented with 10% of heat inactivated fetal bovine serum (Thermo Fisher).
Assays were performed using reporter plasmid pYX017 as described (Xie, et al., 2011) with several modifications. The reporter assay was performed in 96-well white optical bottom plates. HeLa cells were seeded in wells 24 h prior to transfection and compound treatment so that cells were approximately 30% confluent on the day of transfection. Different cell plating densities were tested and a density of 2×10^3 cells was determined to be optimal.
Compounds were resuspended in DMSO. Serial dilutions (1:3) were prepared in DMSO. Medium containing different concentrations of the compounds were prepared by adding 2 μl of the compound dilution to 1 ml of the culture medium. The final concentration of DMSO in the medium was 0.2%.
FuGENE® HD transfection reagent (Promega, E2311, Lot 382574 and Lot 397842) was used to transfect the plasmids into the cells. The transfection reagent: DNA mixture was prepared in OpiMEM (Thermo Fisher) according to manufacturer's instructions. Different ratios of transfection reagent to DNA were tested and a ratio of 3:1 was determined to be optimal. Culture medium was removed from the cells and discarded. The transfection reagent: DNA mixture (5 μl) was mixed with the compound containing medium (100 μl/well) and this was added onto the cells of each well. Cells were incubated at 37° C./5% CO2 for different incubation time. A 72 h incubation time was determined to be optimal.
Luciferase reporter activity was quantified with the Dual-Luciferase® Reporter Assay System (Promega) according to manufacturer's instructions for multiwell plates except that cells were lysed directly on the multiwell plate with 30 μl of the passive lysis buffer (PLB) for 20 min at room temperature, with gentle shaking to ensure complete cell lysis.
Firefly and Renilla luciferase signals were measured using a SpectraMax i3× Multi-Mode Microplate Reader. Integration times of 100 ms and 10 ms were used to measure the Firefly and Renilla signals respectively. Relative L1 activity is calculated as Firefly/Renilla*1000 or Firefly/Renilla*10,000. Dose response inhibition data were fit to a four parameter logistic equation using non-linear regression (using Graphpad Prism 8), to determine IC50 values for each inhibitor.
In turn, `C#C[C@@]1(CO)C[C@@H](Sc2ccc(C)cc2)[C@H](n2ccc(=O)[nH]c2=O)O1` [compound 31, 1-((2R,3R,5R)-5-ethynyl-5-(hydroxymethyl)-3-(p-tolylthio)tetrahydrofuran-2-yl)pyrimidine-2,4(1H,3H)-dione] displayed an IC50 of over 50 µM.
In turn, `C#C[C@]1(CO)OC(n2cnc3c(OC)ncnc32)C[C@@H]1O` (stereo partly drawn) [compound 61, (2R,3S)-2-ethynyl-2-(hydroxymethyl)-5-(6-methoxy-9H-purin-9-yl)tetrahydrofuran-3-ol] had an IC50 of 7.43 µM.
In turn, `C#C[C@]1(CO)OC(n2cc(C)c(=O)[nH]c2=O)C[C@@H]1O` (stereo partly drawn) [compound 43, 1-((4S,5R)-5-ethynyl-4-hydroxy-5-(hydroxymethyl)tetrahydrofuran-2-yl)-5-methylpyrimidine-2,4(1H,3H)-dione] came in with an IC50 of 0.876 µM.
Take `C#C[C@]1(CO)O[C@H](n2nc(C)c3c(N)nc(F)nc32)C[C@@H]1O` [Cpd. No. 3, (2R,3S,5S)-5-(4-amino-6-fluoro-3-methyl-1H-pyrazolo[3,4-d]pyrimidin-1-yl)-2-ethynyl-2-(hydroxymethyl)tetrahydrofuran-3-ol]: 0.041 µM corresponded to half-maximal inhibition (IC50).
Consider `C=C[C@]1(CO)O[C@@H](n2cc(OC)c(=O)[nH]c2=O)C[C@@H]1O` [Cpd. No. 6, 1-((2R,4S,5R)-4-hydroxy-5-(hydroxymethyl)-5-vinyltetrahydrofuran-2-yl)-5-methoxypyrimidine-2,4(1H,3H)-dione], for which the IC50 was over 50 µM.
In turn, `C#C[C@@]1(CO)C[C@@H](Sc2ccc(C)cc2)[C@H](n2cc(C)c(=O)[nH]c2=O)O1` [compound 26, 1-((2R,3R,5R)-5-ethynyl-5-(hydroxymethyl)-3-(p-tolylthio)tetrahydrofuran-2-yl)-5-methylpyrimidine-2,4(1H,3H)-dione] had an IC50 of over 50 µM.
The compound `CNc1nc(N)nc2c1ncn2[C@H]1C[C@H](O)[C@](CO)(CF)O1` [compound 166, (2R,3S,5R)-5-(2-amino-6-(methylamino)-9H-purin-9-yl)-2-(fluoromethyl)-2-(hydroxymethyl)tetrahydrofuran-3-ol] displayed an IC50 of 0.417 µM.
`C#C[C@@]1(CO)C=C[C@H](n2cc(C(F)(F)F)c(=O)[nH]c2=O)O1` [compound 28, 1-((2R,5R)-5-ethynyl-5-(hydroxymethyl)-2,5-dihydrofuran-2-yl)-5-(trifluoromethyl)pyrimidine-2,4(1H,3H)-dione] registered a concentration for half-maximal inhibition (IC50) of over 12.5 µM.
`C=C[C@]1(CO)O[C@@H](n2cnc3c(NC4CC4)ncnc32)C[C@@H]1O` [Cpd. No. 94, (2R,3S,5R)-5-(6-(cyclopropylamino)-9H-purin-9-yl)-2-(hydroxymethyl)-2-vinyltetrahydrofuran-3-ol] had an IC50 of over 50 µM.
For `C=C[C@]1(CO)O[C@H](Nc2[nH]c(=O)ncc2Br)C[C@@H]1O` [compound 104, 5-bromo-6-(((2S,4S,5R)-4-hydroxy-5-(hydroxymethyl)-5-vinyltetrahydrofuran-2-yl)amino)pyrimidin-2(1H)-one], the IC50 came to 4.9 µM.
With `CC[C@]1(CO)O[C@@H](n2cc(C#N)c(=O)[nH]c2=O)C[C@@H]1O` [Cpd. No. 98, 1-((2R,4S,5R)-5-ethyl-4-hydroxy-5-(hydroxymethyl)tetrahydrofuran-2-yl)-4-hydroxy-2-oxo-1,2-dihydropyrimidine-5-carbonitrile] the figure was over 25 µM.
Consider `C#C[C@@]1(CO)C=C[C@H](n2cc(C)c(N)nc2=O)O1` [compound 42, 4-amino-1-((2R,5R)-5-ethynyl-5-(hydroxymethyl)-2,5-dihydrofuran-2-yl)-5-methylpyrimidin-2(1H)-one], for which the IC50 was over 50 µM.
In turn, `CC[C@]1(CO)O[C@@H](n2cc(F)c(=O)[nH]c2=O)C[C@@H]1O` [Cpd. No. 18, 1-((2R,4S,5R)-5-ethyl-4-hydroxy-5-(hydroxymethyl)tetrahydrofuran-2-yl)-5-fluoropyrimidine-2,4(1H,3H)-dione] yielded an IC50 of 3.75 µM.
`C=C[C@]1(CO)O[C@H](n2ccc(N)nc2=O)C[C@@H]1O` [compound 89, 4-amino-1-((2S,4S,5R)-4-hydroxy-5-(hydroxymethyl)-5-vinyltetrahydrofuran-2-yl)pyrimidin-2(1H)-one] yielded an IC50 of 1.28 µM.

The term IC50 denotes the point on the concentration scale where inhibition reaches its midpoint. A low value points to greater potency in that assay.
